Broadly, the inhibition is the drop in the measured response relative to a control, in per cent.

The values below come from patent US11572590B2, “Methods for evaluating tumor cell spheroids using 3D microfluidic cell culture device” (Dana-Farber Cancer Institute, Inc., priority 2017, dated 2023).

The structures appear in SMILES notation. Where two headings read alike, the source gives them in different places.

What all share (assay): SelectScreen Kinase Profiling, single point inhibition and IC50 for off-target kinases
Type in all cases: biochemical

The target of experiment [1] is T1, off-target kinases (Homo sapiens, UniProt Q8WXR4).
T1 sequence (Q8WXR4 1-1341): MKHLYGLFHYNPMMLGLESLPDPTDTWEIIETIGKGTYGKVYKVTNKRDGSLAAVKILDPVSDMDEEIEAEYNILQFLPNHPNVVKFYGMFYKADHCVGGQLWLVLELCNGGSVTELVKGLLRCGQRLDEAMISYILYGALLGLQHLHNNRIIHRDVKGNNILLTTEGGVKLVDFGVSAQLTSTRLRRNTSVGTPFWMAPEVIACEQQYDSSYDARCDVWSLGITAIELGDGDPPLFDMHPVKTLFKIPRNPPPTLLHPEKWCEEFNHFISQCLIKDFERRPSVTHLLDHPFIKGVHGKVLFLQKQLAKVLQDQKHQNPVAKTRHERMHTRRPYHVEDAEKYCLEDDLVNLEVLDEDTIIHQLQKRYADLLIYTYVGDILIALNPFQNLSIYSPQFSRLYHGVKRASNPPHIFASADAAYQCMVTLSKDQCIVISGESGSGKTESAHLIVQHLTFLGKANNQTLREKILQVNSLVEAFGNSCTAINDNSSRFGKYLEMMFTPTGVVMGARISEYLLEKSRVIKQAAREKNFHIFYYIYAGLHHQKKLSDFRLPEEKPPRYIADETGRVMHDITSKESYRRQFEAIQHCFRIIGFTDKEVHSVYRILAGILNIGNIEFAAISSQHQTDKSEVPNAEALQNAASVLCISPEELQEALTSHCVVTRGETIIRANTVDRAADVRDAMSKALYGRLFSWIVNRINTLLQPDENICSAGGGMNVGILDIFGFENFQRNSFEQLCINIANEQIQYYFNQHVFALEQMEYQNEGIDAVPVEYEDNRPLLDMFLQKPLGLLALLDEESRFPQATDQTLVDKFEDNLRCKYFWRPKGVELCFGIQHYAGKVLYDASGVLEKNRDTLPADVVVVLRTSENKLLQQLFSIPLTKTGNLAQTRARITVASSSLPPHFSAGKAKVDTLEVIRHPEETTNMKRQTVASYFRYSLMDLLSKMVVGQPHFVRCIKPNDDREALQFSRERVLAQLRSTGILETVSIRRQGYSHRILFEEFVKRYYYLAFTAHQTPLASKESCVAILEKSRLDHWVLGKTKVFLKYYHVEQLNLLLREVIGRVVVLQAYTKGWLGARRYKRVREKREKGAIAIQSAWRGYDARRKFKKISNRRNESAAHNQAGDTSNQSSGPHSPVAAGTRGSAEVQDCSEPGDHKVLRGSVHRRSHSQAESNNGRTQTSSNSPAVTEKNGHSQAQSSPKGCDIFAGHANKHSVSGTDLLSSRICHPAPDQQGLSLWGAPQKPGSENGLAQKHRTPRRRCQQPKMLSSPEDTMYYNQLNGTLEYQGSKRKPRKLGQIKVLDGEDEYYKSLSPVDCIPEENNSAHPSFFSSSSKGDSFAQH
Particulars: MYO3B (MYO3 beta), LanthaScreen Binding. On the technique in general: In TR-FRET formats the signal depends on donor and acceptor labels being close together.

For experiment [2], the target named is off-target kinases (Homo sapiens, UniProt Q9UM73, R1275Q). Particulars: ALK R1275Q (mutant), LanthaScreen Binding.
The target of experiment [3] is off-target kinases (Homo sapiens, UniProt Q9Y6M4). Particulars: CSNK1G3 (CK1 gamma 3), ZLYTE, ATP Km app.
The target of experiment [4] is off-target kinases (Homo sapiens, UniProt O94921). Particulars: CDK14 (PFTK1)/cyclin Y, LanthaScreen Binding.
The target of experiment [5] is off-target kinases (Homo sapiens, UniProt Q99558). Particulars: MAP3K14 (NIK), LanthaScreen Binding.
In experiment [6] the target is off-target kinases (Homo sapiens, UniProt Q9Y2K2). Particulars: SIK3, LanthaScreen Binding.
Chain of off-target kinases (Homo sapiens, UniProt Q9Y2K2) (Q9Y2K2 whole entry): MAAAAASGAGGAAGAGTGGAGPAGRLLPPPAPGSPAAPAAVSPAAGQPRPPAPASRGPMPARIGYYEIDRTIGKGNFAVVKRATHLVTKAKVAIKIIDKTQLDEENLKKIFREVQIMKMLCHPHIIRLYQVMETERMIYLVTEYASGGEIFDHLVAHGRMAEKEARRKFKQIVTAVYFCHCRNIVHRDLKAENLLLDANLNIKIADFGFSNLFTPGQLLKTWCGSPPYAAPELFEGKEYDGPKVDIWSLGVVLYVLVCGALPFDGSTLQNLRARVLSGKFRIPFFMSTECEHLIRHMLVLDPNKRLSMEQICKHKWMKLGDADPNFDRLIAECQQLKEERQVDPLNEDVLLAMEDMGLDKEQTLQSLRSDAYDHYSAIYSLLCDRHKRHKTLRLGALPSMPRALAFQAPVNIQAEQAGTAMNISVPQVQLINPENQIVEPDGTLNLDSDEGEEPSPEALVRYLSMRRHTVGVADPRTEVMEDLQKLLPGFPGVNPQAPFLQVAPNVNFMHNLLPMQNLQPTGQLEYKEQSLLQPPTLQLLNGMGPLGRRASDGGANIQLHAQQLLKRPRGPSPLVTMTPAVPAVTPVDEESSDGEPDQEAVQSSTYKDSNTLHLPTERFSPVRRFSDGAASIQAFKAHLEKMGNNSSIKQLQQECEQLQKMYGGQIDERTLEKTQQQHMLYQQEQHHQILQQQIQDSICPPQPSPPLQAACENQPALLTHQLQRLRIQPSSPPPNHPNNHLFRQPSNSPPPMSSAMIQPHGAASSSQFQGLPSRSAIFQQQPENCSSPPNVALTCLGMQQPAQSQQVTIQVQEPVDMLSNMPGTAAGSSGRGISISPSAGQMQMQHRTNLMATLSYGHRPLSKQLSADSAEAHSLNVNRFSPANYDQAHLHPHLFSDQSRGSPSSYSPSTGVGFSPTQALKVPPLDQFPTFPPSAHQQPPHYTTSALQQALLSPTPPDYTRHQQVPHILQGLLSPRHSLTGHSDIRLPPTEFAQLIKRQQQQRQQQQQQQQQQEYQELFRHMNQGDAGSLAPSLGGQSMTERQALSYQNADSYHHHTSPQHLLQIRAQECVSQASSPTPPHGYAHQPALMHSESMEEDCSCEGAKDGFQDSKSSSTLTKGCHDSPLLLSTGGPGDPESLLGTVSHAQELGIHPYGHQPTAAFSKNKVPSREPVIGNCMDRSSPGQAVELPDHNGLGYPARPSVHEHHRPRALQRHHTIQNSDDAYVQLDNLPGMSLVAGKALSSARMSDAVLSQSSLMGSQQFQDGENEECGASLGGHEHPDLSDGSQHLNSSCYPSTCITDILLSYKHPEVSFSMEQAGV

Chain of off-target kinases (Homo sapiens, UniProt Q9UM73, R1275Q) (Q9UM73 19-1620 R1275Q): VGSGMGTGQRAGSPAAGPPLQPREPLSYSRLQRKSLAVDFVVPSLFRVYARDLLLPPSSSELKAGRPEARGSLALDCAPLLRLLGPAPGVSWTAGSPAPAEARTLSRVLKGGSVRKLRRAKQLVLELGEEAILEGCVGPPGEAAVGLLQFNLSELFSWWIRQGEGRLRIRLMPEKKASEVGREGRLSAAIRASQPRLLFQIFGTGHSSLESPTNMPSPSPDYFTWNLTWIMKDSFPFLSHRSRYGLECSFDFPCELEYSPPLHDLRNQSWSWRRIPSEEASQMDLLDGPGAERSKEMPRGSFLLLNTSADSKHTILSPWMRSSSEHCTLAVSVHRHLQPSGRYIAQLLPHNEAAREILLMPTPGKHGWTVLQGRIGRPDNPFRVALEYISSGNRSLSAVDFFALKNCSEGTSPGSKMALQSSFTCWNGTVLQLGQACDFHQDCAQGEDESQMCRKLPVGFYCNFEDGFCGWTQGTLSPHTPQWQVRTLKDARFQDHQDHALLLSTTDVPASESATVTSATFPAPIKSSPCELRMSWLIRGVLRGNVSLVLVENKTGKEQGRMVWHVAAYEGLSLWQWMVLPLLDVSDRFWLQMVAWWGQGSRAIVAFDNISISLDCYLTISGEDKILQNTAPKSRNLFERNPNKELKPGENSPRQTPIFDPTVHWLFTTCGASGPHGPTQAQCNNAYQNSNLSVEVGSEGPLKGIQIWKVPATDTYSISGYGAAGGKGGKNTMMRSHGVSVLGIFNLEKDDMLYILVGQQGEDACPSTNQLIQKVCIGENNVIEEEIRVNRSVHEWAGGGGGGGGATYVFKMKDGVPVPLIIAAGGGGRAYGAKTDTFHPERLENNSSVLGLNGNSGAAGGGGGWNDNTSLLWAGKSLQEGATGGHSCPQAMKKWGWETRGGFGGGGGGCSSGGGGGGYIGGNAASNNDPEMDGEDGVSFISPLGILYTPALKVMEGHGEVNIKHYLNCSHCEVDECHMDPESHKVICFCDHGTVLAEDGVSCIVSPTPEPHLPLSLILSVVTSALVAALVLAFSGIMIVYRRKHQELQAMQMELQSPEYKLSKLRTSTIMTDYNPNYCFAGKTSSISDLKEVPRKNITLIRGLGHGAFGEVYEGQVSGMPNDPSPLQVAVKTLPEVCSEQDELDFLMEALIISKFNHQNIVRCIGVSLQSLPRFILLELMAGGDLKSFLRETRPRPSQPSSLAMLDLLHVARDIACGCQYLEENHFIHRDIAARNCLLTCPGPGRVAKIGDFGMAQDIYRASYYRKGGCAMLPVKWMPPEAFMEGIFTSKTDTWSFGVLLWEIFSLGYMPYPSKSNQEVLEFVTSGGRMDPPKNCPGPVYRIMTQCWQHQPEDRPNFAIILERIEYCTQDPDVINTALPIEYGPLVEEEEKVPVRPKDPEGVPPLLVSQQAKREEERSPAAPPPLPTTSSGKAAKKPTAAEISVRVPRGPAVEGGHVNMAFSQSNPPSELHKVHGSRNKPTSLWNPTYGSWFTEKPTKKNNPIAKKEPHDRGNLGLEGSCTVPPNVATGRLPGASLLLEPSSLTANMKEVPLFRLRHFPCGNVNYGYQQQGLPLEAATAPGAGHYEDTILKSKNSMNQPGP
Chain of off-target kinases (Homo sapiens, UniProt Q9Y6M4) (Q9Y6M4 whole entry): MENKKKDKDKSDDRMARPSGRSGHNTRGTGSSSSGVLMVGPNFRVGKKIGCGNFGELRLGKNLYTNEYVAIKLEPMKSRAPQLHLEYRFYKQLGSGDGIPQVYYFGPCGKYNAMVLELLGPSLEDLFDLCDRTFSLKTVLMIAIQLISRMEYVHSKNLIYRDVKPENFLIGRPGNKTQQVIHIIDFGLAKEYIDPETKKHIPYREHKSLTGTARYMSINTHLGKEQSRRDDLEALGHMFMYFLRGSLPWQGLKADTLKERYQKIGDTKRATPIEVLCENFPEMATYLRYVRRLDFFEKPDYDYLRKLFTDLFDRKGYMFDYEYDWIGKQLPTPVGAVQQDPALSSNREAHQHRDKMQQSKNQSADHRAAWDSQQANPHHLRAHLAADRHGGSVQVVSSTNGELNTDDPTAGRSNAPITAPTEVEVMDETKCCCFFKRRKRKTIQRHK
Chain of off-target kinases (Homo sapiens, UniProt Q99558) (Q99558 whole entry): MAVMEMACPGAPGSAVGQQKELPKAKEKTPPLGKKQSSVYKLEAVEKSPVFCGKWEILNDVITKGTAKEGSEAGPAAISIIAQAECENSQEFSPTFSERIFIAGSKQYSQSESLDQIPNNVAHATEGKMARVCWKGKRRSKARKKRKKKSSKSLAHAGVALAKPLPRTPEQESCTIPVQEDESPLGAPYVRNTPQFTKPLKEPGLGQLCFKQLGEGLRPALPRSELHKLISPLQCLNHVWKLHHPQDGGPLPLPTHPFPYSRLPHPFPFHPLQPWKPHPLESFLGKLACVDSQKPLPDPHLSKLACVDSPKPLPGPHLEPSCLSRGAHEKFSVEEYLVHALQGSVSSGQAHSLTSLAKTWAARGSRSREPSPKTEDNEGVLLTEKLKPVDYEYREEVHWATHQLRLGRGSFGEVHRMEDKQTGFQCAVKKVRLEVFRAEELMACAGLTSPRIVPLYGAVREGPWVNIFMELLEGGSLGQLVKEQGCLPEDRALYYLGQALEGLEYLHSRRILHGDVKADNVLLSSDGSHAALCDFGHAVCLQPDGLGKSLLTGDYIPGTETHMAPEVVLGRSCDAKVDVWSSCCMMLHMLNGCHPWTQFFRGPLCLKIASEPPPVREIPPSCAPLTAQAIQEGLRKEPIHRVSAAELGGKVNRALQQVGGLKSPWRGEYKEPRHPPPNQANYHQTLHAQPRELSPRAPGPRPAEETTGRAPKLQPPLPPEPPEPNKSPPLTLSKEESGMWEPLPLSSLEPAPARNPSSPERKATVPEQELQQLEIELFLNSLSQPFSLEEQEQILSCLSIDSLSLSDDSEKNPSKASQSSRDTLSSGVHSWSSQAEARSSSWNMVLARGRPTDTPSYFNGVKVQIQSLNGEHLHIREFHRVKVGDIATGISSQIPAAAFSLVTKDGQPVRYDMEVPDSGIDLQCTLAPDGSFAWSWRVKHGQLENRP
Chain of off-target kinases (Homo sapiens, UniProt O94921) (O94921 whole entry): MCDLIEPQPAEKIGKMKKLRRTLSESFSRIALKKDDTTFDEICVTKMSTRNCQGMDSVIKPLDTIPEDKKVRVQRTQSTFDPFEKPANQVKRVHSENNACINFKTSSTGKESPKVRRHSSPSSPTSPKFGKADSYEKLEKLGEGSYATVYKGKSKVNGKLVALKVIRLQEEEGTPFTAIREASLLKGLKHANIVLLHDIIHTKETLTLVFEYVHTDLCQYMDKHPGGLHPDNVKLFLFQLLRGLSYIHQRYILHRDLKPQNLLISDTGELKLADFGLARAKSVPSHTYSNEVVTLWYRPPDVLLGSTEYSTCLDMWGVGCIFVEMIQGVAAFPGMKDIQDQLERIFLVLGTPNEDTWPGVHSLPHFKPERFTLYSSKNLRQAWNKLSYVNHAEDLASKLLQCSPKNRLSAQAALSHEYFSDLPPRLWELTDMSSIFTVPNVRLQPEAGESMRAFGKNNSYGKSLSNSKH

For `N#Cc1cc(-c2ncnc(Nc3ccc(N4CCN(C5COC5)CC4)cc3)n2)ccc1OC1CCOCC1` [Compound 1, 5-(4-((4-(4-(oxetan-3-yl)piperazin-1-yl)phenyl)amino)-1,3,5-triazin-2-yl)-2-((tetrahydro-2H-pyran-4-yl)oxy)benzonitrile], the inhibition was determined as 17% in experiment [1] (read-out: % Inhibition 1); 20% in experiment [1] (read-out: % Inhibition 2); 18% in experiment [1] (read-out: % Inhibition Avg); 0% in experiment [2] (read-out: % Inhibition 1); 7% in experiment [2] (read-out: % Inhibition 2); 4% in experiment [2] (read-out: % Inhibition Avg). Moreover, the inhibition is 4% in experiment [3] (read-out: % Inhibition 1); -2% in experiment [3] (read-out: % Inhibition 2); 1% in experiment [3] (read-out: % Inhibition Avg); 56% in experiment [4] (read-out: % Inhibition 1); 51% in experiment [4] (read-out: % Inhibition 2); 54% in experiment [4] (read-out: % Inhibition Avg). Moreover, the inhibition worked out at 20% in experiment [5] (read-out: % Inhibition 1); 24% in experiment [5] (read-out: % Inhibition 2); 22% in experiment [5] (read-out: % Inhibition Avg); 98% in experiment [6] (read-out: % Inhibition 1); 95% in experiment [6] (read-out: % Inhibition 2); 96% in experiment [6] (read-out: % Inhibition Avg).
